In patent US9987254B2, “Ophthalmic composition for correcting presbyopia” (Eurocanarias Oftalmológica, S.L., priority 2013, dated 2018):

Tests used:
[1] = cited from earlier work
presbyopia = assay: Study in presbyopia patients over 40 years old, non-dominant eye treated, single daily application; format: in vivo, human; settings: bromfenac combined with pilocarpine
Text: The study carried out by the present invention is based on a composition distinct from Dr. Benotzzi's, as well as on other selection criteria as regards patients, exclusively including patients over 40 years old with evident signs of clear presbyopia with a refractive defect among −0.50 of myopia and +0.75 of hyperopia with a maximum astigmatism of −0.75, in addition to their corresponding age-based presbyopia. Here, only those patients with the following characteristics were considered ideal candidates: an ACD (Anterior Chamber […] of the eye) greater than 2.5 mm, a White-to-White (horizontal diameter) greater than 11.4 mm and a value of photopic pupils higher than 3 mm. and of scotopic pupils lower than 6.5 mm, plus a correct convergence and binocularity and a density of the eye crystal lower than 25 measured with Pentacam. Additionally, only the non-dominant eye has been always treated, a situation that is not reflected in the studies of Dr. Benozzi, although we have evidence that recommends the use in both eyes. […]

[2] = test system: prostaglandin synthesis at the level of ciliary body and the iris; settings: in vitro; cited from earlier work
[3] = after instillation on the ocular surface

Nc1c(CC(=O)O)cccc1C(=O)c1ccc(Br)cc1 [bromfenac sodium sesquihydrate]
concentrations in aqueous humor remained [1, 3]: over 12 hours | measurable levels in the major ocular tissues [1, 3]: ≤ 24 h | passage through the human cornea ([1]; human cornea): efficiently pass through the human cornea

Nc1c(CC(=O)O)cccc1C(=O)c1ccc(Br)cc1 [bromfenac]
parasympathomimetic action of pilocarpine (presbyopia; compared with diclofenac of Dr. Benozzi's formula): significantly extends | depth of focus of the treated eye (presbyopia; non-dominant eye treated): significant increase | inhibition of prostaglandin synthesis [2]: inhibits prostaglandin synthesis
